# Tests used:
# canarygrass = assay: Test C postemergence test; type: in vivo, Phalaris minor; conditions: for Plant response rating (0 to 100), Canarygrass: 31 g ai/ha; for Plant response rating, Canarygrass: scale 0 to 100, 0 no effect, 100 complete control
# Experimental: (§1) At the same time, plants selected from these crop and weed species and also winter barley (Hordeum vulgare), canarygrass (Phalaris minor), and chickweed (Stellaria media) were treated with postemergence applications of some of the test chemicals formulated in the same manner. Plants ranged in height from 2 to 18 cm (1- to 4-leaf stage) for postemergence treatments. […] At time of treatment, test pots were flooded to 3 cm above the soil surface, treated by application of test compounds directly to the paddy water, and then maintained at that water depth for the duration of the test. Treated plants and controls were maintained in a greenhouse for 13 to 15 days, after which time all species were compared to controls and visually evaluated. […] A dash (-) response means no test result.
# Canada horseweed = assay: Test F preemergence test; type: in vivo, Conyza canadensis; conditions: scale 0 to 100
# Description: (§2) Seeds of plant species selected from bermudagrass (Cynodon dactylon), Surinam grass (Brachiaria decumbens), large crabgrass (Digitaria sanguinalis), green foxtail (Setaria viridis), goosegrass (Eleusine indica), johnsongrass (Sorghum halepense), kochia (Kochia scoparia), pitted morningglory (Ipomoea lacunosa), purple nutsedge (Cyperus rotundus), common ragweed (Ambrosia elation), mustard (Brassica nigra), guineagrass (Panicum maximum), […] (Paspalum dilatatum), barnyardgrass (Echinochloa crus-galli), southern sandbur (Cenchrus echinatus), common sowthistle (Sonchus oleraceous), prickly […] spinosa), Italian ryegrass (Lolium multiflorum), common purslane (Portulaca oleracea), broadleaf signalgrass (Brachiaria platyphylla), common groundsel (Senecio vulgaris), common chickweed (Stellaria media), Virginia dayflower (Commelina virginica), annual bluegrass (Poa annua), naked crabgrass (Digitaria nuda), […] cochinchinensis), quackgrass (Elytrigia repens), Canada horseweed (Conyza canadensis), field bindweed (Convolvulus arvensis), […] (Bidens bipinnata), common mallow (Malva sylvestris), Russian thistle (Salsola kali), and sugarcane (Saccharum officinarum) were planted and treated preemergence with test chemicals formulated in a non-phytotoxic solvent mixture which included a surfactant. At a different time, sugarcane was treated with postemergence applications of some of the test chemicals formulated in the same manner. Plants were approximately 3- to 4-leaf stage for the postemergence treatments. Treated plants and controls were maintained in a greenhouse for 14 to 21 days, after which time all species were compared to controls and visually evaluated. […] A dash (-) response means no test result.
# spanishneedles = assay: Test F preemergence test; type: in vivo, Bidens bipinnata; conditions: scale 0 to 100
# Description: as §2
# johnsongrass = assay: Test F preemergence test; type: in vivo, Sorghum halepense; conditions: scale 0 to 100
# Description: as §2
# common sowthistle = assay: Test F preemergence test; type: in vivo, Sonchus oleraceous; conditions: scale 0 to 100
# Description: as §2
# chickweed = assay: Test C postemergence test; type: in vivo, Stellaria media; conditions: for Plant response rating (0 to 100), Chickweed: 31 g ai/ha; for Plant response rating, Chickweed: scale 0 to 100, 0 no effect, 100 complete control
# Experimental: as §1
# common chickweed = assay: Test F preemergence test; type: in vivo, Stellaria media; conditions: scale 0 to 100
# Description: as §2
# winter barley = assay: Test C postemergence test; type: in vivo, Hordeum vulgare; conditions: for Plant response rating (0 to 100), Barley: 31 g ai/ha; for Plant response rating, Barley: scale 0 to 100, 0 no effect, 100 complete control
# Experimental: as §1
# windgrass = assay: Test C pre-/postemergence test; type: in vivo, Apera spica-venti; conditions: Postemergence; for Plant response rating, Windgrass: scale 0 to 100, 0 no effect, 100 complete control
# Description: Seeds of plant species selected from blackgrass (Alopecurus myosuroides), downy brome (Bromus tectorum), green foxtail (Setaria viridis), Italian ryegrass (Lolium multiflorum), wheat (Triticum aestivum), wild oat (Avena fatua), catchweed bedstraw (Galium aparine), Russian thistle (Salsola kali), […] (Cynodon dactylon), Surinam grass (Brachiaria decumbens), cocklebur (Xanthium strumarium), corn (Zea mays), crabgrass (Digitaria sanguinalis), woolly cupgrass (Eriochloa villosa), giant foxtail (Setaria faberii), Goosegrass (Eleusin indica), johnsongrass (Sorghum halepense), kochia (Kochia scoparia), lambsquarters (Chenopodium album), morningglory (Ipomoea coccinea), eastern black nightshade (Solanum ptycanthum), yellow nutsedge (Cyperus esculentus), pigweed (Amaranthus retroflexus), common ragweed (Ambrosia elation), soybean (Glycine max), common (oilseed) sunflower (Helianthus annuus), and velvetleaf (Abutilon theophrasti) were planted and treated preemergence with test chemicals formulated in a non-phytotoxic solvent mixture which included a surfactant. At the same time, plants selected from these crop and weed species and also winter barley (Hordeum vulgare), canarygrass (Phalaris minor), and chickweed (Stellaria media) were treated with postemergence applications of some of the test chemicals formulated in the same manner. Plants ranged in height from 2 to 18 cm (1- to 4-leaf stage) for postemergence treatments. […] At time of treatment, test pots were flooded to 3 cm above the soil surface, treated by application of test compounds directly to the paddy water, and then maintained at that water depth for the duration of the test. […] A dash (-) response means no test result.
Structure (SMILES),"Plant response rating (0 to 100), Canarygrass (canarygrass)","Plant response rating, Canarygrass (canarygrass; 62 g ai/ha)","Plant response rating, Canarygrass (canarygrass; 125 g ai/ha)","Plant response rating, Canarygrass (canarygrass; 250 g ai/ha)","Horseweed plant response rating (Canada horseweed; 62 g ai/ha, Preemergence)","Horseweed plant response rating (Canada horseweed; 125 g ai/ha, preemergence)","Plant response rating, Horseweed (Canada horseweed; Preemergence, 31 g ai/ha)","Spanishneedles plant response rating (spanishneedles; 125 g ai/ha, preemergence)","Plant response rating, Spanishneedles (spanishneedles; Preemergence, 62 g ai/ha)","Johnsongrass plant response rating (johnsongrass; 62 g ai/ha, Preemergence)","Johnsongrass plant response rating (johnsongrass; 125 g ai/ha, preemergence)","Plant response rating, Johnsongrass (johnsongrass; Preemergence, 31 g ai/ha)","Sowthistle plant response rating (common sowthistle; 125 g ai/ha, preemergence)","Plant response rating, Sowthistle (common sowthistle; Preemergence, 62 g ai/ha)","Plant response rating, Sowthistle (common sowthistle; Preemergence, 31 g ai/ha)","Plant response rating (0 to 100), Chickweed (chickweed)","Plant response rating, Chickweed (chickweed; 62 g ai/ha)","Plant response rating, Chickweed (chickweed; 125 g ai/ha)","Chickweed plant response rating (common chickweed; 62 g ai/ha, Preemergence)","Chickweed plant response rating (common chickweed; 125 g ai/ha, preemergence)",further results
Cn1nc(C(F)(F)F)c(C[S+]([O-])c2ccc(Cl)c[n+]2[O-])c1OCC(F)(F)F (racemic) [Compound 62],0,0,0,10,100,100,100,100,75,100,100,80,98,98,95,0,0,0,100,100,"Plant response rating, Horseweed (Canada horseweed; 16 g ai/ha, preemergence): 0; Plant response rating, Spanishneedles (spanishneedles; 16 g ai/ha, preemergence): 30; Plant response rating, Spanishneedles (spanishneedles; Preemergence, 31 g ai/ha): 65; Plant response rating, Johnsongrass (johnsongrass; 16 g ai/ha, preemergence): 20; Plant response rating, Sowthistle (common sowthistle; 16 g ai/ha, preemergence): 0; Plant response rating, Chickweed (chickweed; 250 g ai/ha): 70; Plant response rating, Chickweed (common chickweed; 16 g ai/ha, preemergence): 100; Plant response rating, Chickweed (common chickweed; Preemergence, 31 g ai/ha): 100; Plant response rating (0 to 100), Barley (winter barley): 0; Plant response rating, Barley (winter barley; 62 g ai/ha): 0; Plant response rating, Barley (winter barley; 125 g ai/ha): 10; Plant response rating, Barley (winter barley; 250 g ai/ha): 40; Plant response rating (0 to 100), Windgrass (windgrass; 31 g ai/ha): 70; Plant response rating (0 to 100), Windgrass (windgrass; 62 g ai/ha): 80; Plant response rating, Windgrass (windgrass; 125 g ai/ha): 90; Plant response rating, Windgrass (windgrass; 250 g ai/ha): 100"
CCn1nc(C(F)(F)F)c(CS(=O)(=O)c2cc(C)cc[n+]2[O-])c1OCC(F)(F)F [Compound 64],0,0,5,10,50,100,0,60,40,90,100,75,100,100,0,0,0,0,100,100,"Plant response rating, Horseweed (Canada horseweed; 16 g ai/ha, preemergence): 0; Plant response rating, Spanishneedles (spanishneedles; 16 g ai/ha, preemergence): 30; Plant response rating, Johnsongrass (johnsongrass; 16 g ai/ha, preemergence): 0; Plant response rating, Chickweed (chickweed; 250 g ai/ha): 0; Plant response rating, Chickweed (common chickweed; 16 g ai/ha, preemergence): 65; Plant response rating, Chickweed (common chickweed; Preemergence, 31 g ai/ha): 100; Plant response rating (0 to 100), Barley (winter barley): 0; Plant response rating, Barley (winter barley; 62 g ai/ha): 0; Plant response rating, Barley (winter barley; 125 g ai/ha): 5; Plant response rating, Barley (winter barley; 250 g ai/ha): 20; Plant response rating (0 to 100), Windgrass (windgrass; 31 g ai/ha): 0; Plant response rating (0 to 100), Windgrass (windgrass; 62 g ai/ha): 90; Plant response rating, Windgrass (windgrass; 125 g ai/ha): 98; Plant response rating, Windgrass (windgrass; 250 g ai/ha): 100"
Cn1nc(C(F)(F)F)c(C[S+]([O-])c2ccc(F)c[n+]2[O-])c1OC(F)F (stereo not shown) [Compound 58],0,0,0,0,98,98,98,65,50,90,100,80,100,100,0,30,60,60,95,100,"Horseweed plant response rating (Canada horseweed; 250 g ai/ha, preemergence): 100; Spanishneedles plant response rating (spanishneedles; 250 g ai/ha, preemergence): 100; Plant response rating, Spanishneedles (spanishneedles; Preemergence, 31 g ai/ha): 50; Johnsongrass plant response rating (johnsongrass; 250 g ai/ha, preemergence): 100; Sowthistle plant response rating (common sowthistle; 250 g ai/ha, preemergence): 100; Chickweed plant response rating (common chickweed; 250 g ai/ha, preemergence): 100; Plant response rating (0 to 100), Barley (winter barley): 0; Plant response rating, Barley (winter barley; 62 g ai/ha): 0; Plant response rating, Barley (winter barley; 125 g ai/ha): 20; Plant response rating, Barley (winter barley; 250 g ai/ha): 30; Plant response rating (0 to 100), Windgrass (windgrass; 31 g ai/ha): 20; Plant response rating (0 to 100), Windgrass (windgrass; 62 g ai/ha): 40; Plant response rating, Windgrass (windgrass; 125 g ai/ha): 70; Plant response rating, Windgrass (windgrass; 250 g ai/ha): 95"
Cn1nc(C(F)(F)F)c(C[S+]([O-])c2ccc(F)c[n+]2[O-])c1OCC(F)(F)F (stereo not shown) [Compound 67],0,0,10,10,100,100,0,98,90,75,95,75,100,100,80,0,60,70,100,100,"Plant response rating, Horseweed (Canada horseweed; 16 g ai/ha, preemergence): 0; Plant response rating, Spanishneedles (spanishneedles; 16 g ai/ha, preemergence): 0; Plant response rating, Spanishneedles (spanishneedles; Preemergence, 31 g ai/ha): 65; Plant response rating, Johnsongrass (johnsongrass; 16 g ai/ha, preemergence): 35; Plant response rating, Sowthistle (common sowthistle; 16 g ai/ha, preemergence): 80; Plant response rating, Chickweed (chickweed; 250 g ai/ha): 95; Plant response rating, Chickweed (common chickweed; Preemergence, 31 g ai/ha): 40; Plant response rating (0 to 100), Barley (winter barley): 0; Plant response rating, Barley (winter barley; 62 g ai/ha): 10; Plant response rating, Barley (winter barley; 125 g ai/ha): 50; Plant response rating, Barley (winter barley; 250 g ai/ha): 50; Plant response rating (0 to 100), Windgrass (windgrass; 31 g ai/ha): 30; Plant response rating (0 to 100), Windgrass (windgrass; 62 g ai/ha): 100; Plant response rating, Windgrass (windgrass; 125 g ai/ha): 100; Plant response rating, Windgrass (windgrass; 250 g ai/ha): 100"
